Assay results taken from patent US20090081197A1 (Palatin Technologies, Inc., priority 2007, published 2009).
Where two headings read alike, the source gives them in different places.

Tests used:
MC3-R [1] = molecular target: T1, MC3-R (Homo sapiens, UniProt P41968); experiment: Competitive inhibition assay using [I^125]-NDP-α-MSH, hMC3-R membranes; type: binding; parameters: expressed in transfected cells; conditions: for inhibition at 1 µM: 1 μM test compound, read-out: Inhibition at 1 μM (NDP-α-MSH) In Normal System, MC3-R
T1 sequence (P41968 whole entry): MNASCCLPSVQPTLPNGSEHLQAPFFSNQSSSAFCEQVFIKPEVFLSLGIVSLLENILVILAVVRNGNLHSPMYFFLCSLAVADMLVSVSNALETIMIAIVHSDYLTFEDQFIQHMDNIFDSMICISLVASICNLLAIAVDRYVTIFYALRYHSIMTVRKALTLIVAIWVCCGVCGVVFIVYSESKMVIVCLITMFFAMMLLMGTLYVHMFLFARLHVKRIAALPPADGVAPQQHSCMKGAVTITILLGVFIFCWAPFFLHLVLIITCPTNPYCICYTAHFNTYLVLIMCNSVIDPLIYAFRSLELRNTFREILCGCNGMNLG
Procedure, shortened: (§1)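 Tracer was 0.4 nM for MC3-R and MC5-R, 0.2 nM for MC4-R and 0.1 nM for MC1-R. Bound radioactivity was gamma-counted after filtration; values are triplicate means, with results below 0% reported as 0%.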

MC5-R [2] = molecular target: T2, MC5-R (Homo sapiens, UniProt P33032); experiment: Competitive inhibition assay using [I^125]-NDP-α-MSH, hMC5-R membranes; type: binding; parameters: expressed in transfected cells; conditions: for inhibition at 1 µM: 1 μM test compound, read-out: Inhibition at 1 μM (NDP-α-MSH) In Normal System, MC5-R
T2 sequence (P33032 whole entry): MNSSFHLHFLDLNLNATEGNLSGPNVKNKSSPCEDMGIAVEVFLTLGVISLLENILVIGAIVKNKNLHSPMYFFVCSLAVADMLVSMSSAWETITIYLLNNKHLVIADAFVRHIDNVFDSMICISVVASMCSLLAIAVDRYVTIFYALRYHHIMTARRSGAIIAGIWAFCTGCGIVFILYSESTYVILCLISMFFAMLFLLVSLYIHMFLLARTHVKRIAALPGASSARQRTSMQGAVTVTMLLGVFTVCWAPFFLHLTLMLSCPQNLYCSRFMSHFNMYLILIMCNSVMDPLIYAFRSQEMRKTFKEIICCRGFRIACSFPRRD
Procedure, shortened: as §1

MC4-R [3] = molecular target: T3, MC4-R (Homo sapiens, UniProt P32245); experiment: cAMP functional activity assay in HEK-293 cells, normal system; type: cell-based; parameters: expressed in transfected cells; host or cells: HEK-293; conditions: for functional status at MC4-R in cAMP assay: normal system, 1 μM concentration where stated; for intrinsic activity at MC4-R in a normal system: normal receptor density system, NDP-α-MSH = 1.0
T3 sequence (P32245 whole entry): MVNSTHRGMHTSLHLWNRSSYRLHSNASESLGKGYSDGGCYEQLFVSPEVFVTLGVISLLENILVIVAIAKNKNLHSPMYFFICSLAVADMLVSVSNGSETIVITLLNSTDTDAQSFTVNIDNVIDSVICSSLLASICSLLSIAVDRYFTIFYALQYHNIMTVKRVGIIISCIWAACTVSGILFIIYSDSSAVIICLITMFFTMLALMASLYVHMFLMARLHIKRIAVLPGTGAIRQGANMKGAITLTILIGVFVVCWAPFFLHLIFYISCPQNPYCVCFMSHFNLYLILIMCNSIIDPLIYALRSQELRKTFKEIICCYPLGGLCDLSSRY

MC1-R [4] = molecular target: T4, MC1-R (Mus musculus, UniProt Q01727); experiment: Competitive inhibition assay using [I^125]-NDP-α-MSH, B-16 mouse melanoma cell membranes; type: binding; conditions: for Ki: read-out: Ki (nM) (NDP-α-MSH) In Normal System, MC1-R; for inhibition at 1 µM: 1 μM test compound, read-out: Inhibition at 1 μM (NDP-α-MSH) In Normal System, MC1-R
T4 construct: B-16 mouse melanoma cells (containing MC1-R); endogenous in cells
T4 sequence (Q01727 whole entry): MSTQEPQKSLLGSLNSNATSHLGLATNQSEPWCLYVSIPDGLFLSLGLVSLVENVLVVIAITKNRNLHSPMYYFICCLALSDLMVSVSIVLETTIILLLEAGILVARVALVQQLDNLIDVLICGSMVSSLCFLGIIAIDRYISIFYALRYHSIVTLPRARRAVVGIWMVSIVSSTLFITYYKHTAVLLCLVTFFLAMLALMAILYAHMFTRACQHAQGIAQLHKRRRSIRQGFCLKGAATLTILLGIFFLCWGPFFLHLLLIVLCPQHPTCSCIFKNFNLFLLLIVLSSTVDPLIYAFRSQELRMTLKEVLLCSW
Procedure, shortened: as §1

MC4-R [5] = molecular target: T3, MC4-R; experiment: cAMP agonist stimulation, low receptor density system (0.1 ng/mL doxycycline); conditions: 0.1 ng/mL doxycycline, low receptor density hMC4-R system; NDP-α-MSH maximal cAMP = 1.0
MC1-R [6] = molecular target: T4, MC1-R; experiment: cAMP functional activity assay in B-16 mouse melanoma cells; type: cell-based; conditions: 1 μM concentration where stated
Method: (§2) General method for EC50 determination in functional activity assay. […] Data analysis and EC50 values were determined using nonlinear regression analysis with Prism Graph-Pad software.
(§3) Functional status. The agonist/antagonist status with respect to MC1-R, MC-3R, MC4-R and MC5-R of certain compounds of the invention was determined. Antagonistic activity was determined by measuring the inhibition of α-MSH-induced or NDP-α-MSH-induced cAMP levels following exposure to graded doses of compounds as in the preceding descriptions.

MC4-R [7] = molecular target: T3, MC4-R; experiment: cAMP agonist stimulation, high receptor density system (10 ng/mL doxycycline); conditions: for Efficacy/Intrinsic Activity: NDP-α-MSH maximal cAMP = 1.0
MC5-R [8] = molecular target: T2, MC5-R; experiment: cAMP functional activity assay in HEK-293 cells; type: cell-based; parameters: expressed in transfected cells; host or cells: HEK-293; conditions: 1 μM concentration where stated
Method: as §2, §3

MC4-R [9] = molecular target: T3, MC4-R; experiment: Competitive inhibition assay using [I^125]-NDP-α-MSH, hMC4-R membranes; type: binding; parameters: host or cells: TREx-293 (HEK-293 stably expressing Tet repressor); conditions: for inhibition at 1 µM: 1 μM test compound, read-out: Inhibition at 1 μM (NDP-α-MSH) In Normal System, MC4-R
Procedure, shortened: as §1

[10] = Penile erection induction in male rats; type: in vivo; conditions: rat, IV
Procedure, shortened: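 Male Sprague-Dawley rats (200-250 g), groups of 4-8, dosed IV or ICV at various doses and observed individually for penile erections. Only statistically relevant increases over vehicle-control mean PEs count as induction; IV responses below 1.0 PEs/rat treated as equivocal, some retested ICV.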

MC3-R [11] = molecular target: T1, MC3-R; experiment: cAMP functional activity assay in HEK-293 cells; type: cell-based; parameters: expressed in transfected cells; host or cells: HEK-293; conditions: 1 μM concentration where stated
Method: as §2, §3

[12] = IV and IP food intake and body weight change, rats; type: in vivo; conditions: rat, IV, dose not stated
Method: IV and IP food intake and body weight change. Change in food intake and body weight was evaluated for selected compounds. Male Sprague-Dawley rats or male C57BL/6 mice were utilized. Animals were individually housed in conventional plexiglass hanging cages and maintained on a controlled 12 hour on/off light cycle. Water and powdered (LabDiet, 5P00 Prolab RMH 3000) or pelleted (Harlan Teklad 2018 18% Protein Rodent Diet) food was provided ad libitum. For 1 week before treatment, 24-hour food intake and body weight change was recorded to assess a baseline for the group during vehicle treatment. The rats were dosed IV with vehicle or selected compounds (0.5-3 mg/kg, and in some cases up to 10 mg/Kg) or dosed intraperitoneally (IP) with vehicle or selected compounds (0.5-10 mg/kg, and in some cases up to 50 mg/kg). Mice were dosed IP. The changes in body weight and food intake for the 24 hour period after dosing were determined. The changes in body weight and food intake for the 48 hour and 72 hour periods after dosing were also measured to determined reversal of changes in body weight and food intake effects back to baseline levels.

[13] = ICV food intake and body weight change; type: in vivo; conditions: rat, 1 nmol, 24 hours
Procedure, shortened: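 Rats fitted with intracerebroventricular cannulas and fed ad libitum got a single ICV dose of vehicle or compound (1-3 nmol). Food intake and body-weight change over the 24 h after dosing were compared with a 1-week vehicle baseline. Values at 48 h and 72 h were also recorded to follow return to baseline.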

[14] = 10 ng/mL doxycycline, high receptor density hMC4-R system

Compound	functional status at MC4-R in cAMP assay (MC4-R [3])	Ki (MC1-R [4])	Efficacy/Intrinsic Activity (MC4-R [5])	functional status at MC1-R in cAMP assay (MC1-R [6])	Efficacy/Intrinsic Activity (MC4-R [7]; [14])	functional status at MC5-R in cAMP assay (MC5-R [8])	inhibition at 1 µM (MC3-R [1])	Penile Erection IV [10]	inhibition at 1 µM (MC5-R [2])	intrinsic activity at MC4-R in a normal system (MC4-R [3])	inhibition at 1 µM (MC1-R [4])	EC50 (MC4-R [7])	inhibition at 1 µM (MC4-R [9])	penile erection response ([10]; 0.3 to 30 μg/kg)	functional status at MC3-R in cAMP assay (MC3-R [11])	other results
N-{3-[1-[2(R)-Amino-3-(4-chloro-2-fluoro-phenyl)-propionyl]-5(S)-methyl-4-(2-naphthalen-2-yl-ethyl)-piperazin-2(S)-yl]-propyl}-guanidine [Example 3]	no intrinsic activity (intrinsic activity below 0.1 (10%) is classified as inactive or having no intrinsic activity)	109 nM	None	partial agonist (intrinsic activity between 0.1 (10%) and 0.7 (70%) is classified as a partial agonist)	0.26	no intrinsic activity (intrinsic activity below 0.1 (10%) is classified as inactive or having no intrinsic activity)	–	–	–	–	–	–	–	–	–	Ki (MC3-R [1]; read-out: Ki (nM) (NDP-α-MSH) In Normal System, MC3-R): 186 nM; Ki (MC5-R [2]; read-out: Ki (nM) (NDP-α-MSH) In Normal System, MC5-R): 204 nM; EC50 (MC4-R [7]; [14]): 61 nM; Ki (MC4-R [9]; read-out: Ki (nM) (NDP-α-MSH) In Normal System, MC4-R): 6 nM
N=C(N)NCCC[C@H]1C(=O)N(CCc2c[nH]c3ccccc23)CCN1C(=O)[C@H](N)Cc1ccc(Cl)cc1Cl [Example 2, N-(3-{(S)-1-[(R)-2-Amino-3-(2,4-dichloro-phenyl)-propionyl]-4-[2-(1H-indol-3-yl)-ethyl]-3-oxo-piperazin-2-yl}-propyl)-guanidine]	partial agonist (intrinsic activity between 0.1 (10%) and 0.7 (70%) is classified as a partial agonist)	1410 nM	None	partial agonist (intrinsic activity between 0.1 (10%) and 0.7 (70%) is classified as a partial agonist)	0.56	partial agonist (intrinsic activity between 0.1 (10%) and 0.7 (70%) is classified as a partial agonist)	57%	No	35%	0.3	7%	57 nM	96%	–	–	penile erection response ([10]; 0.3 to 3 μg/kg): did not cause penile erection behavior
Cc1ccc(CCN2C[C@H](CCCNC(=N)N)N(C(=O)[C@H](N)Cc3ccc4ccccc4c3)C[C@H]2C)cc1 [Example 5, N-{3-[1-(2(R)-Amino-3-naphthalen-2-yl-propionyl)-5(R)-methyl-4-(2-p-tolyl-ethyl)-piperazin-2(S)-yl]-propyl}-guanidine]	partial agonist (intrinsic activity between 0.1 (10%) and 0.7 (70%) is classified as a partial agonist)	135 nM	None	partial agonist (intrinsic activity between 0.1 (10%) and 0.7 (70%) is classified as a partial agonist)	0.46	partial agonist (intrinsic activity between 0.1 (10%) and 0.7 (70%) is classified as a partial agonist)	61%	No	65%	0.6	32%	117 nM	95%	no penile erection response	no intrinsic activity (intrinsic activity below 0.1 (10%) is classified as inactive or having no intrinsic activity)	–
C[C@@H]1CN(C(=O)[C@H](N)Cc2ccc3ccccc3c2)[C@@H](CCCNC(=N)N)CN1C(=O)Cc1c[nH]c2ccccc12 [Example 6, N-{3-[1-(2(R)-Amino-3-naphthalen-2-yl-propionyl)-4-(2-1H-indol-3-yl-acetyl)-5(R)-methyl-piperazin-2(S)-yl]-propyl}-guanidine]	partial agonist (intrinsic activity between 0.1 (10%) and 0.7 (70%) is classified as a partial agonist)	315 nM	None	no intrinsic activity (intrinsic activity below 0.1 (10%) is classified as inactive or having no intrinsic activity)	0.43	partial agonist (intrinsic activity between 0.1 (10%) and 0.7 (70%) is classified as a partial agonist)	35%	No	6%	0.2	20%	39 nM	90%	no penile erection response	no intrinsic activity (intrinsic activity below 0.1 (10%) is classified as inactive or having no intrinsic activity)	–
N=C(N)NCCC[C@H]1C(=O)N2C(CC[C@@H]2COc2ccc3ccccc3c2)N1C(=O)[C@@H](Cc1ccc(Cl)cc1Cl)NC(=O)[C@@H]1CC[C@H](c2ccccc2)N1 (stereo partly drawn) [Example 19, (2S,5R)-5-Phenyl-pyrrolidine-2-carboxylic acid {(R)-1-(2,4-dichloro-benzyl)-2-[(2S,5R)-2-(3-guanidino-propyl)-5-(naphthalen-2-yloxymethyl)-3-oxo-hexahydro-pyrrolo[1,2-a]imidazol-1-yl]-2-oxo-ethyl}-amide]	no intrinsic activity (intrinsic activity below 0.1 (10%) is classified as inactive or having no intrinsic activity)	1040 nM	None	–	0.22	–	43%	No	86%	–	16%	173 nM	97%	–	–	penile erection response ([10]; 1 μg/kg): no penile erection response; 24 hour decrease in food intake [12]: 1%; decrease in body weight ([12]; 24 hours): 2%; decrease in body weight [13]: 3%; decrease in food intake [13]: 38%
